Results from patent US8623909B2, “Prophylactic/therapeutic agents for lifestyle-related diseases” (priority 2008, dated 2014).
Marks after values point to notes of the source that are not given here.

How the values were obtained:
[1] = molecular target: T1, GFP-AR (Homo sapiens, UniProt P10275); assay: Subnuclear localization of GFP-AR in NIH-3T3-L1 cells; assay type: cell-based, mouse; set-up: expressed in transfected cells; host or cells: NIH-3T3-L1 cells; conditions: 10^−5 M, FIG. 4
T1 sequence (P10275 1-920): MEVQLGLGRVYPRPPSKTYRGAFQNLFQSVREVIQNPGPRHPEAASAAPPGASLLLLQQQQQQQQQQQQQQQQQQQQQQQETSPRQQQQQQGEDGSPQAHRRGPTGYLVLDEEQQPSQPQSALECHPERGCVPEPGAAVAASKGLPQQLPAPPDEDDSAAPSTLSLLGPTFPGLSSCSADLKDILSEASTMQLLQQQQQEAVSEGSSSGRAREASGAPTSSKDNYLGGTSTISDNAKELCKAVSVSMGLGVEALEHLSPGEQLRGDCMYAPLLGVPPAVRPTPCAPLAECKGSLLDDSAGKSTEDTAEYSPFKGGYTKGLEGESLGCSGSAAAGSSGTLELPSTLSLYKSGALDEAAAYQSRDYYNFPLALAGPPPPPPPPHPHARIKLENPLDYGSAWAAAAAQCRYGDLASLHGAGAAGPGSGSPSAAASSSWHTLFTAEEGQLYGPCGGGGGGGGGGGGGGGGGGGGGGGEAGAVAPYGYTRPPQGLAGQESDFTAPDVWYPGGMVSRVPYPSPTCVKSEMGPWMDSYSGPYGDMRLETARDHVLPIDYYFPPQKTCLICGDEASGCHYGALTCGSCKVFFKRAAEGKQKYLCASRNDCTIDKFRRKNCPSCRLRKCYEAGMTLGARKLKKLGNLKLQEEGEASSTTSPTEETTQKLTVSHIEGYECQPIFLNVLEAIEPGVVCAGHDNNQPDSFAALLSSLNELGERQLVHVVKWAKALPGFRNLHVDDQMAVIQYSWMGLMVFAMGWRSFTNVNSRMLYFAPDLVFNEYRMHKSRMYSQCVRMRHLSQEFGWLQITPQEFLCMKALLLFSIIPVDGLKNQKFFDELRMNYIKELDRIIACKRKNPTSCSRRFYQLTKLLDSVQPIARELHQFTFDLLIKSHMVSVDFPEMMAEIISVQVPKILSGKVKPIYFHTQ

[2] = tested on: B6 mice on high-fat diet; assay: Glucose tolerance test in high-fat diet B6 mice; assay type: in vivo, mouse; conditions: high-fat diet mice after 16 weeks, glucose 1 g/kg
Protocol: (§1) 9-week-old B6 mice were divided into a control group, high-fat diet group and high-fat diet+compound of formula (Ia) group of 10 animals each, and housed and observed for 16 weeks. During this period, the compound of formula (Ia) was subcutaneously injected at 10 mg/kg every other day, body weights were measured once a week, and food intake was measured once every 4 weeks.
In addition, glucose tolerance tests were also carried out on the mice after housing for 16 weeks. The mice were divided into groups of 5 mice each, injected at 1 g/kg, and glucose value was then measured over time.

[3] = molecular target: T1, GFP-AR; assay: Subnuclear localization of GFP-AR in LNCaP cells; assay type: cell-based; set-up: expressed in transfected cells; host or cells: LNCaP cells; conditions: 10^−5 M, observed 3 hours later, FIG. 2
[4] = tested on: ORX rats; assay: Total plasma adiponectin level in ORX rats; assay type: in vivo, rat; conditions: for Plasma adiponectin concentration: solvent 2.2, sham 1.3
Protocol: 11-week-old, male Sprague-Dawley (SD) rats (320 to 340 g, purchased from Charles River Japan) were housed for 1 week in a room maintained at a light-dark cycle of 12 hours per day and controlled at a set temperature and humidity while allowing free access to a commercially available standard rodent diet and water.
After housing the animals, the animals were anesthetized with ether, and underwent bilateral orchiectomy (orchiectomized rats: ORX) or a sham treatment. After awaking from the anesthesia, the animals were assigned to test groups of 3 to 5 animals each. Starting on the day after surgery, the animals were subcutaneously injected once a day with an injection solution of the test compound (prepared by dissolving the test compound in a small amount of DMSO and diluting with olive oil for animal testing (consisting of 95% olive oil and 5% DMSO)) at the rate of 0.1 ml/100 g of body weight. After 21 days, the rats were sacrificed by exsanguination from the abdominal artery, the ventral prostates and anal levator muscle were excised and weighed followed by immersing in RNAlater (Nacalai Tesque) for extraction of RNA. In addition, soft tissue was removed from the right femur, and immersed in 75% ethanol followed by storage for subsequent measurement of the bone mineral density. Moreover, liver and visceral fat tissue were collected and immersed in RNAlater for RNA extraction.
The inventors of the present invention measured total plasma adiponectin levels in ORX rats treated in the aforementioned section (4)-1). Plasma insulin levels were also measured simultaneously.

[5] = tested on: PSA mRNA in LNCaP cells; assay: PSA mRNA expression level in LNCaP cells (real-time PCR); assay type: cell-based, human; conditions: 10^−5M, 24 hours, control (DMSO) 1.0
Protocol: (§2) 1) Extraction of Total RNA
(§3) After respectively culturing the LNCaP cells and NIH-3T3-L1 cells co-transfected in 1) to 3) above in 6-well plates, the cells were cultured for 24 hours in EMEM or RPMI 1640 containing 10% fetal calf serum treated with dextran-charcoal and a test compound (dissolved in a small amount of DMSO). Subsequently, total RNA was respectively extracted using Isogen (Wako Pure Chemical Industries).
(§4) 5 μg aliquots of each total RNA obtained in 1) above were reverse-transcribed to first strand cDNA using a Superscript III Kit (Invitrogen) and brought to a final volume of 20 μL. Real-time PCR was carried out using LightCycler FastStart DNA Master SYBR Green I (Roche Diagnostic) in order to quantify expression of PSA mRNA in LNCaP cells and UCP-1 mRNA in NIH-3T3-L1 cells. PCR was carried out under the following conditions in 20 μL of reaction mixture: 50 cycles consisting of denaturing for 3 seconds at 95° C., annealing for 10 seconds at 60° C. and elongating for 25 seconds at 72° C. β-actin mRNA was also simultaneously amplified for use as an internal standard. Real-time PCR value for each transcription product were calculated as a relative ratio to β-actin.

[6] = tested on: UCP-1 mRNA in NIH-3T3-L1 cells; assay: UCP-1 mRNA expression level in NIH-3T3-L1 cells (real-time PCR); assay type: cell-based, mouse; conditions: 10^−5M, 24 hours, control (DMSO) 1.0
Protocol: as §2, §3, §4

[7] = tested on: B6 mice on high-fat diet; assay: High-fat diet B6 mice, 16 weeks (body weight, serum glucose, serum insulin, food intake, visceral fat); assay type: in vivo, mouse; conditions: 10 mg/kg s.c. every other day
Protocol: as §1
After 16 weeks, the body weights, bone mineral densities, fat distributions and exercise levels of the mice were measured, followed by collecting blood samples and finally sacrificing the animals and collecting their organs. The average value of body weight, serum glucose concentration and serum insulin concentration of each group after 16 weeks are shown in the following Table 17.

Question: For CC(=O)[C@H]1CCC2C3CCc4c(C)cccc4C3CC[C@@]21C (stereo partly shown) [Compound of formula (Ia)], which “GFP-AR nuclear translocation and foci (dots) formation” value [1] is on record?
Answer: The value was “formed the subnuclear foci (dots)”.

Question: What about the “Glucose value in glucose tolerance test” value ([2]; 0 min after injection) of the same molecule?
Answer: The value was 82.2^## mg/dL.

Question: And the “Glucose value in glucose tolerance test” value ([2]; 15 min after injection)?
Answer: The value was 293.6 mg/dL.

Question: And the “Glucose value in glucose tolerance test” value ([2]; 30 min after injection)?
Answer: Its value is 327.6* mg/dL.

Question: And the “Glucose value in glucose tolerance test” value ([2]; 60 min after injection)?
Answer: The value was 249.4 mg/dL.

Question: And the “Glucose value in glucose tolerance test” value ([2]; 90 min after injection)?
Answer: Its value is 262.0* mg/dL.

Question: What about the “Glucose value in glucose tolerance test” value ([2]; 120 min after injection) of the same molecule?
Answer: Its value is 163.0 mg/dL.

Question: What about the “GFP-AR nuclear translocation and foci (dots) formation” value [3] of the same molecule?
Answer: The value was “clear foci (dots) were not formed”.

Question: What about the Plasma adiponectin concentration ([4]; 1 mg/Kg) of the same molecule?
Answer: The Plasma adiponectin concentration was 2.2* μg/mL.

Question: What about the Plasma adiponectin concentration ([4]; 10 mg/Kg) of the same molecule?
Answer: The Plasma adiponectin concentration was 2.1* μg/mL.

Question: What about the “Effect on castration-induced increase of plasma adiponectin (in words)” value ([4]; 1 or 10 mg/kg) of the same molecule?
Answer: Its value is “did not demonstrate such inhibitory activity on the adiponectin levels”.

Question: What about the “PSA mRNA (relative ratio to β-actin mRNA)” value [5] of the same molecule?
Answer: Its value is 0.8.

Question: What about the “UCP-1 mRNA (relative ratio to β-actin mRNA)” value [6] of the same molecule?
Answer: The value was 2.1*.

Question: And the “Body weight versus high-fat diet group (in words)” value ([7]; 16 weeks)?
Answer: Its value is “significantly lower than in the high-fat diet group”.

Question: And the “Increase of serum glucose and serum insulin concentrations due to the high-fat diet (in words)” value ([7]; 16 weeks)?
Answer: The value was “significantly inhibited”.

Question: And the “Accumulation of visceral fat (in words)” value ([7]; 16 weeks, FIG. 6)?
Answer: Its value is “roughly the same as that of the rat of the ordinary diet group”.

Question: What about the “Serum insulin concentration (average)” value ([7]; after 16 weeks, high-fat diet alone 0.46, ordinary diet 0.13) of the same molecule?
Answer: The value was 0.27^# ng/mL.

Question: What about the “Body weight (average)” value ([7]; after 16 weeks, high-fat diet alone 36.6, ordinary diet 30.7) of the same molecule?
Answer: Its value is 34.9^### g.

Question: What about the “Serum glucose concentration (average)” value ([7]; after 16 weeks, high-fat diet alone 113.2, ordinary diet 75) of the same molecule?
Answer: Its value is 82.2^## mg/dL.
